Data: patent US8765729B2, “Cancer therapy” (Aeolus Sciences, Inc., priority 2001, dated 2014)

Columns and labels:
[1] = test system: radiation-induced lung injury; assay: Radiation-induced lung injury in rats (28 Gy right hemithoracic irradiation); type: in vivo
Experimental: AEOL 10113 was tested (6 mg/kg/day for 5 days beginning on the day of irradiation) in a rat model of radiation-induced lung injury as assessed by breathing rate (animals with lung injury have a more rapid respiration rate), and chemical and microscopic measures of fibrosis. During the follow-up period of 6 months, 4 of the 9 rats receiving radiation only developed severe respiratory distress and were euthanized. In the group of rats treated with radiation plus AEOL 10113, only 1 of the 9 rats developed respiratory distress and was euthanized. Breathing rate data were analyzed on a last observation carried forward (LOCF) data set, in which the last observation for rats euthanized due to respiratory distress was imputed to subsequent weeks. There was a significant (log ranks p=0.0011) delay (approximately 3.4 weeks) in the development of radiation-induced lung injury (assessed by an increase in breathing rate) in animals treated with AEOL 10113 (FIG. 12).
Six months after radiation all remaining animals were euthanized. At that time, the right upper lung lobe was removed and processed to quantify the extent of lung fibrosis based on hydroxyproline content.
Radiation-induced lung fibrosis was also assessed using histopathology (FIG. 13B). Lungs were fixed in 10% neutral buffered formalin. Five-micron thick sections were stained with hematoxylin and eosin or Masson trichrome and examined microscopically. Slides were systematically scanned in a microscope using a ×10 objective. Each successive field was individually assessed for severity of interstitial fibrosis and allotted a score of between 0 and 8.
Studies were performed to evaluate changes in body weight after irradiation and to assess the radioprotective effect of MnTE-2-PyP on radiation-induced pulmonary injury in rats. The body weight and lung function of the animals were measured every two weeks after irradiation in three groups of animals: control, radiation alone and radiation+MnTE-2-PyP. A single dose of 28 Gy was delivered to right hemithorax and 6 mg/kg of MnTE-2-PyP was given daily i.p. for 5 days after irradiation. Unrestrained rats were placed in a 1500 ml whole body plethysmograph tube connected to a pressure transducer for a breathing rate measurements. […] The mean of five measurements was performed on each animal.

[2] = test system: R3230 AC mammary adenocarcinoma; assay: R3230 AC mammary adenocarcinoma growth and radiation response in Fischer 344 rats; type: in vivo; settings: for tumor growth as compared to control (Day 20 Tumor Ratio, Days for 5-fold tumor growth): 6 mg/kg/day IP Day 1 to 20, FIG. 2C
Experimental: FIGS. 2A-2C. (FIG. 2A) B16 melanoma tumor treated with SOD mimetic. The mimetic was 10113 at a dose of 6 mg/kg given intraperitoneally qd for 5 days. (FIG. 2B) Mammary adenocarcinoma treated with SOD mimetic. 10113 was given intraperitoneally at a dose of 6 mg/kg/day for 16 days. Radiation therapy (RT), 21 Gy, was given on day 8 or 9. (FIG. 2C) Fischer 344 rats with subcutaneously implanted R3230 AC mammary adenocarcinomas received Radiation treatment (21 Gy Day 1), AEOL 10113 (6 mg/kg/day IP Day 1 to 20), the combination Radiation and AEOL 10113 (as above), or Control treatment.
The effect of the MnTE-2-PyP (manganese(III) tetrakis(N-ethylpyridinium-2-yl)porphyrin) on tumor growth and radiation response in two tumor models has been tested. […] The effect of the SOD mimetic. MnTE-2-PyP, on tumor growth and radiation response has been tested in a rat model.
[…] AC mammary adenocarcinoma was transplanted on the right hind leg. When the tumors reached 0.8-1 cm in diameter, the rats were randomized into 4 groups to receive 1) Saline (control); 2) Drug 10150; 3) Drug 10113; 4) Drug 10201. Drugs were given daily in dose of […] i.p. The tumor size was measured twice a week. (FIG. 3).

## CC[n+]1ccccc1-c1c2nc(c(-c3cccc[n+]3CC)c3ccc([n-]3)c(-c3cccc[n+]3CC)c3nc(c(-c4cccc[n+]4CC)c4ccc1[n-]4)C=C3)C=C2.[Mn+3] [Compound 10113, manganese(III)tetrakis(N-ethylpyridinium-2-yl)porphyrin]
[1]; 6 mg/kg/day for 5 days, LOCF, log ranks p=0.0011
  delay in the development of radiation-induced lung injury (increase in breathing rate): approximately 3.4 weeks
[1]; 6 mg/kg/day for 5 days, average
  reduction of the magnitude of the increase in breathing rate at endpoint: 34%
[1]; 6 months after 28 Gy, wet and dry lung
  hydroxyproline content of upper right lobe after radiation: significant reduction (p<0.05)
[1]; 28 Gy, 6 mg/kg daily i.p. for 5 days
  recovery of body weight loss after hemithoracic irradiation: significantly better recovery of the body weight loss
[1]; AEOL 10113 without radiation
  hydroxyproline content of right upper lobe vs control: no differences
[1]; fibrosis score 0-8, FIG. 13B
  radiation-induced lung fibrosis by histopathology: reduced radiation-induced lung fibrosis
[1]; of 9 rats, radiation plus AEOL 10113, 6 months, radiation only 4 of 9
  rats that developed respiratory distress and were euthanized: 1
[2]; listed as AEL 10113
  tumor growth as compared to control (Day 20 Tumor Ratio, Days for 5-fold tumor growth): limited tumor growth
[2]; listed as AEOL 10113
  tumor growth as compared to control (Day 20 Tumor Ratio, Days for 5-fold tumor growth): significantly (p<0.05) inhibited tumor growth
[2]; radiation 21 Gy plus mimetic
  post-radiation tumor regrowth: significant inhibition of the post-radiation tumor regrowth
[2]; radiation 21 Gy plus mimetic, listed as AEL 10113
  effect on tumor response to radiation: did not diminish the effect of radiation on tumor growth
[2]; radiation 21 Gy plus mimetic, listed as MnTE-2-PyP
  effect on tumor response to radiation: does not protect tumor from irradiation
[2]; rat model, SOD mimetic alone
  inhibition of tumor growth: > 50%
